Experimental data from patent US9388216B2, “Methods of treating reproductive cancer” (Medical Research Council, priority 2006, dated 2016).
Non-standard residues stand in square brackets, D forms with d. pGlu = O=C1CC[C@@H](C(=O)O)N1

Key:
HEK293/rGnRHR cells [1] = assay: Cell growth inhibition (viable cell number after 5 days of continuous treatment) in HEK293/rGnRHR cells; type: cell-based, rat; details: for antiproliferative/apoptotic potency compared with GnRH I (in words) / fold more potent than GnRH I to induce cell death / inhibit cell growth: rat receptor; for antiproliferative/apoptotic potency compared with GnRH I (in words): 5 days
Procedure: (§1) For the first method, HEK293 cells expressing various GnRH receptor constructs were seeded into 12-well PLL-coated plates at 50,000 cells (in 1 ml)/well and cultured with continuous GnRH exposure for five days, adding fresh peptide every day. Trypan Blue-excluding cells were then counted with a haemocytometer. For the second method, cells were seeded into 96-well plates at 5,000 cells (in 100 μl)/well and treated exactly as described before. 10 μl WST-1 reagent (Roche Diagnostics Ltd.; Lewes, East Sussex, UK) was added directly to each well and, after 3 h at 37° C., absorbance was read at 450 nm (with a reference at 690 nm) against a background control as blank using a microplate ELISA reader.
(§2) Bar graphs and curves were obtained using Prism 3.0 (GraphPad Software, Inc.: San Diego, Calif., USA). IC50 and EC50 values were determined by non-linear regression analysis. Curves were best-fitted to a one-site model. […] Values were normalised as specified in the figure legends.
(§3) Antiproliferation/apoptosis was estimated by determining cell number after five days of continuous exposure to the peptides. In parallel, this response was compared to the classical Gq coupled-PLCβ activation induced by GnRH peptides, as measured by the very well characterized inositol phosphates accumulation protocol. Both outputs were determined in two HEK293 cell lines; one expressing the rat receptor and the other expressing the human receptor. The human cell line was included in the study because this species may be clinically more relevant and the very low receptor expression may better reflect the in vivo tumoural state. In fact, due to poor binding, the precise affinity of the analogues on this cell line could not be determined.

rat GnRH receptor [2] = target: T1, rat GnRH receptor (Rattus norvegicus, UniProt P30969); assay: Accumulation of total inositol phosphates (PLCβ activation) in HEK293/rGnRHR cells; type: cell-based
T1 construct: expressed in transfected cells
T1 sequence (P30969 1-327): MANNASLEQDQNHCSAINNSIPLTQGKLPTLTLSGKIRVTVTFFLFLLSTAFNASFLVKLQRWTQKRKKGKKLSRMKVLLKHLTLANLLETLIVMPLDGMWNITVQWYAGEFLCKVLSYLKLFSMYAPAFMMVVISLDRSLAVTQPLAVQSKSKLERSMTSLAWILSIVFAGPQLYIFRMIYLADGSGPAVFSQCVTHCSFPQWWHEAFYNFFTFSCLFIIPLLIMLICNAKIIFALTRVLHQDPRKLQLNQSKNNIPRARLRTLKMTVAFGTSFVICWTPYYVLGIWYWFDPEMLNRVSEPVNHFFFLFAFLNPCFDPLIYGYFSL
Procedure: HEK293 cells stably expressing the GnRH receptor growing on 12-well PLL-coated plates were pre-labelled with 1 μCi/ml myo-[H3]inositol (Amersham) in inositol-free DMEM (Sigma) for 48 h. On the day of the experiment, cells were washed with assay buffer (140 mM NaCl, 20 mM HEPES, 8 mM glucose, 4 mM KCl, 1 mM MgCl2, 1 mM CaCl2, 1 mg/ml BSA), pre-incubated with 10 mM LiCl (in assay buffer) for 30 min, and stimulated with different concentrations of the peptides (in the same buffer) for 1 h at 37° C. Incubations were terminated by removing the culture medium and lysing the cells in ice cold 10 mM formic acid for 30 min. Inositol phosphates were extracted by chromatography with an anion exchange resin (AG® 1-X8, Bio-Rad) using 1 M ammonium formate and 0.1 M formic acid. Liquid scintillant was added to the final eluate and [3H]inositol phosphates were measured in the β-counter.
as §2

HEK293/hGnRHR cells = assay: Cell growth inhibition (viable cell number after 5 days of continuous treatment) in HEK293/hGnRHR cells; type: cell-based, human; details: for antiproliferative/apoptotic potency compared with GnRH I (in words) / fold more potent than GnRH I to induce cell death / inhibit cell growth: human receptor; for antiproliferative/apoptotic potency compared with GnRH I (in words): 5 days
Procedure: as §1, §2, §3

human GnRH receptor = target: T2, human GnRH receptor (Homo sapiens, UniProt P30968); assay: Accumulation of total inositol phosphates (PLCβ activation) in HEK293/hGnRHR cells; type: cell-based
T2 construct: expressed in transfected cells
T2 sequence (P30968 1-328): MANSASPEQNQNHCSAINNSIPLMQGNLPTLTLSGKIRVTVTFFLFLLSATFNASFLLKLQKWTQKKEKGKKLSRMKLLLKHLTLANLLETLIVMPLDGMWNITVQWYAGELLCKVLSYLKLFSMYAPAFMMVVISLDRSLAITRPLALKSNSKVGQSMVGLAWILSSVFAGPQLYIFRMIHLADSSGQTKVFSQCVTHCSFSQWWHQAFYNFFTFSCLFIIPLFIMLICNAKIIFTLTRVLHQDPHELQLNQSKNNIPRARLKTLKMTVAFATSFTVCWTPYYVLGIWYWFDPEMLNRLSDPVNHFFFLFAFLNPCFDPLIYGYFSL

rat GnRH receptor [3] = target: T1, rat GnRH receptor; assay: Competition binding assay with [125I][His5,D-Trp6]GnRH I in HEK293/rGnRHR cells
Procedure: Cell monolayers growing on 12-well PLL-coated plates were incubated in binding buffer (10 mM HEPES, 1% BSA in DMEM) containing […] radioligand (100,000 cpm) and 10-6-10-12 M unlabelled ligand. Equilibrium was reached after incubation for 4 h at 4° C. Cells were then lysed in 0.1 M NaOH and the radioactivity in the extract was measured in a 1261 Wallac MultiGamma counter.
as §2

[4] = system: PARP cleavage in HEK293/rGnRHR cells; assay: Time-course of PARP cleavage (apoptosis), western blot; type: cell-based, rat; details: 100 nM
Procedure: (§4) We investigated whether the growth suppression caused by GnRH on HEK293 cells expressing the rat receptor was due to an inhibition of cell proliferation or an induction of apoptosis. On the one hand, we used radioactive thymidine incorporation into the genome to track cell proliferation over a period of 96 h. […] On the other hand, we measured apoptosis by monitoring cleavage of poly[ADP-ribose]polymerase (PARP), a substrate of caspase 3. […] The increase of cleaved PARP in the cytoplasm was proportional to the increase of cleaved PARP in the nucleus (data not shown), so we routinely only examined clarified whole-cell lysates for technical ease.

[5] = system: Gi coupling of GnRHR (FSK-stimulated cAMP); assay: Inhibition of FSK-stimulated cAMP in HEK293/rGnRHR cells; type: cell-based, rat; details: unpublished results
Source text: However, we agree with the general view that PLC, representing the classical Gq-initiated pituitary signalling pathway, is not a relevant component of the apoptotic cascade.

HEK293/rGnRHR cells [6] = assay: Thymidine incorporation assay; type: cell-based, rat; details: 100 nM, continuous treatment, over 96 h
Procedure: Medium of cells growing on 24-well PLL-coated plates was removed and 0.5 μCi [3H]thymidine (Amersham) in complete fresh medium was added to each well. After an overnight incubation, the medium was removed, the cells washed three times with 1 ml PBS and left for […] at room temperature in 0.5 ml 0.1 N NaOH. The extract was then transferred to a scintillation vial, 2 ml of Optiphase “HiSafe 3” cocktail (PerkinElmer) added and 3H counts measured in a liquid scintillation 1450 Wallac MicroBeta® TriLux counter.
as §4

[7] = HEK293/human GnRH receptor cells

| Substance | antiproliferative/apoptotic potency compared with GnRH I (in words) (HEK293/rGnRHR cells [1]) | potency to stimulate inositol phosphates accumulation / PLCβ activation compared with GnRH I (in words) (rat GnRH receptor [2]) | antiproliferative/apoptotic potency compared with GnRH I (in words) (HEK293/hGnRHR cells) | potency to stimulate inositol phosphates accumulation / PLCβ activation compared with GnRH I (in words) (human GnRH receptor) | affinity compared with GnRH I (in words) (rat GnRH receptor [3]) | antiproliferative potency (in words) (HEK293/hGnRHR cells; [7]) | fold more potent than GnRH I to induce cell death / inhibit cell growth (HEK293/rGnRHR cells [1]) | fold more potent than GnRH I to induce cell death / inhibit cell growth (HEK293/hGnRHR cells) | fold more potent to suppress cell growth relative to GnRH I (HEK293/rGnRHR cells [1]; range across rat and human receptor cell lines (discussion)) | fold less potent to stimulate PLCβ compared to GnRH I (rat GnRH receptor [2]) | antiproliferative effect compared with inositol phosphate production, selectivity (in words) (HEK293/hGnRHR cells; [7]) | fold less potent to stimulate PLCβ relative to GnRH I (human GnRH receptor) | time after first treatment at which PARP cleavage (apoptosis) is manifest [4] | inhibition of FSK-stimulated cAMP [5] | DNA replication (thymidine incorporation) compared to untreated cells (HEK293/rGnRHR cells [6]) |
| --- | --- | --- | --- | --- | --- | --- | --- | --- | --- | --- | --- | --- | --- | --- | --- |
| [His5,Tyr8]GnRH I: double mutant GnRH I incorporating His5 and Tyr8 of GnRH II ([pGlu]HWSHGLYPG-NH2; ends and bridges not checked; UniProt P01148 24-33, looked up, variant Y5H R8Y) | more potent to inhibit cell growth than GnRH I | features intermediate between GnRH I and [Tyr8]GnRH I | more potent to inhibit cell growth than GnRH I | features intermediate between GnRH I and [Tyr8]GnRH I | features intermediate between GnRH I and [Tyr8]GnRH I |  |  |  |  |  |  |  |  |  |  |
| [His5]GnRH I: GnRH I with Tyr5 substituted by His5 of GnRH II (QHWSHGLRPG; Gonadoliberin-1; UniProt P01148 24-33, looked up, variant Y5H) | better potencies | better potencies | better potencies | better potencies | higher affinity than GnRH I | most potent antiproliferative/apoptotic agent ever described |  |  |  |  |  |  |  |  |  |
| [Trp7,Tyr8]GnRH I: double mutant GnRH I incorporating Trp7 and Tyr8 of GnRH II ([pGlu]HWSYGWYPG-NH2; ends and bridges not checked; UniProt P01148 24-33, looked up, variant L7W R8Y) | almost identical to those of [Tyr8]GnRH I | almost identical to those of [Tyr8]GnRH I | almost identical to those of [Tyr8]GnRH I | almost identical to those of [Tyr8]GnRH I | almost identical to those of [Tyr8]GnRH I |  |  |  |  |  |  |  |  |  |  |
| [Trp7]GnRH I: GnRH I with Leu7 replaced by Trp7 of GnRH II (QHWSYGWRPG; Gonadoliberin-1; UniProt P01148 24-33, looked up, variant L7W) |  | did not modify the affinity and PLCβ activation capacity |  | did not modify the affinity and PLCβ activation capacity | did not modify the affinity and PLCβ activation capacity |  | 9.1 fold | 19.3 fold |  |  |  |  |  |  |  |
| [Tyr8]GnRH I: GnRH I with Arg8 substituted by Tyr8 of GnRH II (QHWSYGLYPG; Gonadoliberin-1; UniProt P01148 24-33, looked up, variant R8Y) |  |  |  |  | very low affinity |  | 4.2 fold | 10.7 fold | 4-11 fold | 27.3 fold | most selective antiproliferative/apoptotic analogue | 23.7 fold |  |  |  |
| pGlu-His-Trp-Ser-His-Gly-Trp-Tyr-Pro-Gly.NH2 (EHWSHGWYPG; HELM PEPTIDE1{[Glp].H.W.S.H.G.W.Y.P.G.[am]}$$$$V2.0; SMILES NC(=O)CNC(=O)[C@@H]1CCCN1C(=O)[C@H](Cc1ccc(O)cc1)NC(=O)[C@H](Cc1c[nH]c2ccccc12)NC(=O)CNC(=O)[C@H](Cc1c[nH]cn1)NC(=O)[C@H](CO)NC(=O)[C@H](Cc1c[nH]c2ccccc12)NC(=O)[C@H](Cc1c[nH]cn1)NC(=O)[C@@H]1CCC(=O)N1) [GnRH II, human gonadotropin-releasing hormone II, purchased from Sigma-Aldrich] |  |  |  |  |  |  | 13.0 fold | 6.7 fold |  |  |  |  | 24 h | did not detect | reduced DNA replication |
